Measured values from patent US20200121652A1, “COMPOUNDS HAVING CASPASE INHIBITORY ACTIVITY, PHARMACEUTICAL AGENT CONTAINING SAID COMPOUNDS AND FOR TREATING OR PREVENTING CORNEAL ENDOTHELIAL SYMPTOMS, DISORDERS, OR DISEASES, AND APPLICATION OF SAID PHARMACEUTICAL AGENT” (The Doshisha, priority 2017, published 2020).

Legend:
Type in all cases: cell-based
[1] = test system: Fuchs' endothelial corneal dystrophy patient derived immortalized human corneal endothelial cells; assay: Phase contrast microscope observation of cell damage after TGF-β2 stimulation (Examples 4-6); settings: then TGF-β2 10 ng/ml 24 h; for disorder in corneal endothelial cells (phase contrast microscope): pretreated 24 h
Experimental: (§1) The medium was removed from the culture dish in which Fuchs' endothelial corneal dystrophy patient derived immortalized human corneal endothelial cells were being cultured, and the cells were supplemented with 1× PBS (−) that was preheated to 37° C., and were washed. This was repeated twice. The cells were supplemented with 1× PBS (−) again and incubated for 5 minutes at 37° C. (5% CO2). After removing the PBS (−), the cells were supplemented with 0.05% Trypsin-EDTA (nacalai tesque, 32778-34) and incubated for 5 minutes at 37° C. (5% CO2). The cells were then suspended in a medium, and collected by centrifugation at 1500 rpm for 3 minutes. DMEM (nacalai tesque, 08456-36) +10% FBS (Sigma, 13H467)+1% P/S (nacalai tesque, 26252-94) was used as the medium.
Fuchs' endothelial corneal dystrophy patient derived immortalized human corneal endothelial cells (lot: iFECD3-5) were seeded on a 12-well plate at a ratio of 5.0×10^4 cells per well, and cultured for 24 hours at 37° C. (5% CO2). DMEM+10% FBS+1% P/S was used as the medium.
(§2) After 24 hours, the medium was removed, fluticasone furoate (AXON MEDCHEM, 1172) was added so that the final concentration was each 0.0001, 0.0003, 0.001, 0.003, 0.01, 0.03, 0.1, 0.3, 1, and 3 μM, and the cells were cultured for 24 hours. DMEM+2% FBS+1% P/S was used as the medium.
After 24 hours, the medium was removed, fluticasone furoate was added together with 10 ng/ml Transforming Growth Factor-82 Human recombinant (WAKO, 200-19911) so that the final concentration was each 0.0001, 0.0003, 0.001, 0.003, 0.01, 0.03, 0.1, 0.3, 1, and 3 μM, and the cells were cultured for 24 hours. Medium: DMEM+2% FBS+1% P/S
After 24 hours, cell morphology and apoptosis were observed using a phase difference microscope.
In this example, TGF-β inhibiting activity of ZK216348 (AXON MEDCHEM, AXON2239), which is one of SEGRMs, was tested. The operation by a phase contrast microscope was carried out in the same manner as Example 4. 10 μM of ZK216348 was used as the final concentration.
After 24 hours, the medium was removed, ZK216348 was added together with 10 ng/ml Transforming Growth Factor-β2 Human recombinant (WAKO, 200-19911) so that the final concentration was […], and the cells were cultured for 24 hours. DMEM+2% FBS+1% P/S was used as the medium.

[2] = test system: Fuchs' endothelial corneal dystrophy patient derived immortalized human corneal endothelial cells; assay: Caspase-Glo 3/7 Assay after pretreatment and TGF-β2 stimulation (Examples 4-5); settings: for activity of Caspase 3/7: TGF-β2 10 ng/ml 24 h; for ratio of (caspase 3/7 activity)/(cell viability): agent concentration 0.0001 to 3 μM (FIG. 12)
Experimental: as §1
Fuchs' endothelial corneal dystrophy patient derived immortalized human corneal endothelial cells (lot: iFECD3-5) were seeded on a 96-well plate at a ratio of 7×10^3 cells per well, and cultured at 37° C. (5% CO2) until reaching confluence. DMEM+10% FBS+1% P/S was used as the medium.
as §2
After 24 hours, the medium was removed, 10 ng/ml Transforming Growth Factor-82 Human recombinant (WAKO, 200-19911) and fluticasone furoate were added so that the final concentration was each 0.0001, 0.0003, 0.001, 0.003, 0.01, 0.03, 0.1, 0.3, 1, and 3 μM, and the cells were cultured for 24 hours. DMEM+2% FBS+1% P/S was used as the medium.
After observation, measurement of caspase 3/7 activity by Caspase-Glo 3/7 Assay was carried out with the following procedure.
The medium was discarded to achieve 50 μl per well. 50 μl/well of CaspaseGlo 3/7 Assay Reagent (mixture of Caspase-Glo 3/7 Assay Buffer and Caspase-Glo 3/7 Assay Substrate) (Promega, G8091) solution was added so as to achieve 1:1 with the medium. The operations hereafter were carried out while being shaded. A shaker was used to mix the content well for 2 minutes at about 120 r/min to then be left still for 40 minutes at room temperature. After being left still, 80 μl was transferred to Assay plate (Corning, 3912, Assay plate 96 well, white polystyrene) and […] was measured using GloMax-Multi Detection System (Promega, E7051). Furthermore, 10 μM Z-VD-FMK (WAKO, 262-02061), which is a caspase inhibitor, was used as the positive control.
In this example, TGF-β inhibiting activity of fluticasone propionate (AXON MEDCHEM, 1404), which is one of SEGRAs, was tested. The test was conducted by the same procedure as Example 4.

[3] = test system: Fuchs' endothelial corneal dystrophy patient derived immortalized human corneal endothelial cells; assay: Cell Titer-Glo Luminescent Cell Viability Assay (Examples 4-5); settings: all concentrations of 0.0001, 0.0003, 0.001, 0.003, 0.01, 0.03, 0.1, 0.3, 1, and 3 μM
Experimental: as §1
Fuchs' endothelial corneal dystrophy patient derived immortalized human corneal endothelial cells (lot: iFECD3-5) were seeded on a 96-well plate at a ratio of 7×10^3 cells per well, and cultured at 37° C. (5% CO2) until reaching confluence. DMEM+10% FBS+1% P/S was used as the medium. […]
Cell viability was analyzed using Cell Titer-Glo Luminescent Cell Viability Assay by the following procedure.
The medium was discarded to achieve 50 μl per well. […] After being left still, 80 μl was transferred to Assay plate (Corning, 3912, Assay plate 96 well, white polystyrene) and […] was measured using GloMax-Multi Detection System (Promega, E7051). […]

Row | Compound | free cells and disorder in corneal endothelial cells (phase contrast microscope) ([1]; pretreated, final concentration 10 μM) | activity of Caspase 3/7 ([2]; 0.003, 0.01, 0.03, 0.1, 0.3, 1, and 3 μM) | activity of Caspase 3/7 ([2]; in the order of 0.0001, 0.0003, and 0.001 μM) | ratio of (caspase 3/7 activity)/(cell viability) [2] | cell viability [3] | disorder in corneal endothelial cells (phase contrast microscope) ([1]; 0.0001 and 0.0003 μM) | disorder in corneal endothelial cells (phase contrast microscope) ([1]; 0.001, 0.003, 0.01, 0.03, 0.1, 0.3, 1, and 3 μM) | activity of Caspase 3/7 ([2]; 0.01, 0.03, 0.1, 0.3, and 1 μM) | activity of Caspase 3/7 ([2]; in the order of 0.0001, 0.0003, 0.001, and 0.003 μM) | disorder in corneal endothelial cells (phase contrast microscope) ([1]; 0.0001, 0.0003, 1, and 3 μM) | disorder in corneal endothelial cells (phase contrast microscope) ([1]; 0.001, 0.003, 0.01, 0.03, and 0.1 μM)
1 | Cc1noc(=O)c2ccc(NC(=O)C(O)(CC(C)(C)c3cccc4c3OCC4)C(F)(F)F)cc12 (single isomer, unassigned; (+)) [ZK216348, (+)-4-(2,3-dihydro-1-benzofuran-7-yl)-2-hydroxy-4-methyl-N-(4-methyl-1-oxo-2,3-benzoxazine-6-yl)-2-(trifluoromethyl)pentanamide] | free cells were decreased and a disorder in corneal endothelial cells was suppressed |  |  |  |  |  |  |  |  |  | 
2 | C[C@@H]1C[C@H]2[C@@H]3C[C@H](F)C4=CC(=O)C=C[C@]4(C)[C@@]3(F)[C@@H](O)C[C@]2(C)[C@@]1(OC(=O)c1ccco1)C(=O)SCF [fluticasone furoate] |  | almost the same as those in the Control group | decreased | below 0.8 | no significant difference from the Control group | effect of suppressing a disorder in corneal endothelial cells was confirmed | effectively suppressed |  |  |  | 
3 | CCC(=O)O[C@]1(C(=O)SCF)[C@H](C)C[C@H]2[C@@H]3C[C@H](F)C4=CC(=O)C=C[C@]4(C)[C@@]3(F)[C@@H](O)C[C@@]21C [fluticasone propionate] |  |  |  | below 0.8 | no significant difference from the Control group |  |  | almost the same as those in the Control group | decreased | effect of suppressing a disorder in corneal endothelial cells was confirmed | effectively suppressed
